Assay results: ChEMBL document CHEMBL5233223, “Dammarane-type leads panaxadiol and protopanaxadiol for drug discovery: Biological activity and structural modification” (Eur J Med Chem, 2020)
In brackets after ≈: the same amount, converted by molar mass.

What was measured:
Bacillus subtilis = assay: Antimicrobial activity against Bacillus subtilis assessed as bacterial growth inhibition; format: functional
Staphylococcus aureus = assay: Antimicrobial activity against Staphylococcus aureus USA300 assessed as bacterial growth inhibition; format: functional
HepG2 2.2.15 = assay: Antiproliferative activity against human HepG2.2.15 cells assessed as cell growth inhibition; format: functional, cell-based
PC-3 = assay: Antiproliferative activity against human PC-3 cells assessed as cell growth inhibition; format: functional, cell-based
LNCaP = assay: Antiproliferative activity against human LNCAP cells assessed as cell growth inhibition; format: functional, cell-based
HeLa [1] = assay: Antiproliferative activity against human HeLa cells assessed as cell growth inhibition; format: functional, cell-based
MCF7 = assay: Antiproliferative activity against human MCF7 cells assessed as cell growth inhibition; format: functional, cell-based
[2] = target: 11-beta-hydroxysteroid dehydrogenase 1 (Mus musculus, UniProt P50172); assay: Inhibition of mouse 11beta-HSD1
Sequence of 11-beta-hydroxysteroid dehydrogenase 1 (Mus musculus, UniProt P50172) (P50172 whole entry): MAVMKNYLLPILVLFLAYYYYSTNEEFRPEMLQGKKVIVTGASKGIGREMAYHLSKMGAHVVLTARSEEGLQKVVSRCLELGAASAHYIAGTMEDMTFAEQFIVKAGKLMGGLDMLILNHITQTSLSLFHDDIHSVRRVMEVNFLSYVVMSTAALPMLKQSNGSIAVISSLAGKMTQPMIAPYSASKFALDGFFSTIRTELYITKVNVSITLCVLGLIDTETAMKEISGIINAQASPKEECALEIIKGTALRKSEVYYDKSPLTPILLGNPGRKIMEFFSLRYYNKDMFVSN

[3] = target: 11-beta-hydroxysteroid dehydrogenase 1 (Homo sapiens, UniProt P28845); assay: Inhibition of human 11beta-HSD1
Sequence of 11-beta-hydroxysteroid dehydrogenase 1 (Homo sapiens, UniProt P28845) (P28845 whole entry): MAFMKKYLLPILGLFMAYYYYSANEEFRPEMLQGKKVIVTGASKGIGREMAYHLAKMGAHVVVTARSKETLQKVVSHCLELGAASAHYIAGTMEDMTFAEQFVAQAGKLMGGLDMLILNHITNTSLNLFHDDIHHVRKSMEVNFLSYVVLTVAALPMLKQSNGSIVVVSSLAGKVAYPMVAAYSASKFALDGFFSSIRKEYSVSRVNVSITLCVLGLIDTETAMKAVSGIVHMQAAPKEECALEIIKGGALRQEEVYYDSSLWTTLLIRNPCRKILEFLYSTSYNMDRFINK

SW480 [4] = assay: Antiproliferative activity against human SW480 cells assessed as cell growth inhibition; format: functional, cell-based
HCT-116 [5] = assay: Antiproliferative activity against human HCT-116 cells assessed as cell growth inhibition; format: functional, cell-based
Mus musculus = assay: In vivo radioprotective activity in gamma-irradiated ICR mouse assessed as inhibition of radiation-induced apoptosis frequency relative to control; format: functional; design: scale not given: the % may be the effect or the level left
HCT-116 [6] = assay: Antiproliferative activity against human HCT-116 cells assessed as cell growth inhibition at 20 uM in presence of epicatechin at 200 uM relative to control; format: functional; design: scale not given: the % may be the effect or the level left
SK-HEP1 = assay: Antiproliferative activity against human SK-HEP1 cells assessed as cell growth inhibition measured after 24 hrs by [3H]thymidine incorporation assay; format: functional, cell-based
HCT-116 [7] = assay: Antiproliferative activity against human HCT-116 cells assessed as cell growth inhibition at 20 uM in presence of epicatechin at 150 uM relative to control; format: functional; design: scale not given: the % may be the effect or the level left
HCT-116 [8] = assay: Antiproliferative activity against human HCT-116 cells assessed as cell growth inhibition at 20 uM relative to control; format: functional; design: scale not given: the % may be the effect or the level left
HCT-116 [9] = assay: Induction of apoptosis in human HCT-116 cells at 20 uM in presence of epicatechin at 150 uM relative to control; format: functional
HCT-116 [10] = assay: Induction of apoptosis in human HCT-116 cells at 20 uM in presence of epicatechin at 250 uM relative to control; format: functional
HeLa [11] = assay: Antiproliferative activity against human HeLa cells assessed as cell growth inhibition measured after 24 hrs by [3H]thymidine incorporation assay; format: functional, cell-based
HCT-116 [12] = assay: Induction of apoptosis in human HCT-116 cells at 20 uM at 20 uM relative to control; format: functional
HCT-116 [13] = assay: Induction of apoptosis in human HCT-116 cells at 20 uM in presence of epicatechin at 200 uM relative to control; format: functional
HCT-116 [14] = assay: Antiproliferative activity against human HCT-116 cells assessed as cell growth inhibition at 20 uM in presence of epicatechin at 250 uM relative to control; format: functional; design: scale not given: the % may be the effect or the level left
HCT-116 [15] = assay: Antiproliferative activity against human HCT-116 cells at 30 uM incubated for 48 hrs in presence of PPD by MTS assay relative to control; format: functional
HCT-116 [16] = assay: Antiproliferative activity against human HCT-116 cells at 10 uM incubated for 48 hrs in presence of PPD by MTS assay relative to control; format: functional
HCT-116 [17] = assay: Antiproliferative activity against human HCT-116 cells at 20 uM incubated for 48 hrs in presence of PPD by MTS assay relative to control; format: functional
HCT-116 [18] = assay: Antiproliferative activity against human HCT-116 cells at 10 uM incubated for 48 hrs by MTS assay relative to control; format: functional
HCT-116 [19] = assay: Induction of apoptosis in human HCT-116 cells at 30 uM in presence of PPD by annexin V-FITC/propidium iodide staining based flow cytometry analysis relative to control; format: functional
HCT-116 [20] = assay: Antiproliferative activity against human HCT-116 cells at 30 uM incubated for 48 hrs by MTS assay relative to control; format: functional
HCT-116 [21] = assay: Antiproliferative activity against human HCT-116 cells at 20 uM incubated for 48 hrs by MTS assay relative to control; format: functional
HCT-116 [22] = assay: Induction of apoptosis in human HCT-116 cells at 30 uM by annexin V-FITC/propidium iodide staining based flow cytometry analysis relative to control; format: functional
HCT-116 [23] = assay: Induction of apoptosis in human HCT-116 cells at 10 uM in presence of EGCG at 30 uM relative to control; format: functional
HCT-116 [24] = assay: Induction of apoptosis in human HCT-116 cells at 20 uM in presence of EGCG at 30 uM relative to control; format: functional
SW480 [25] = assay: Antiproliferative activity against human SW480 cells assessed as cell growth inhibition in presence of irinotecan; format: functional, cell-based
HCT-116 [26] = assay: Antiproliferative activity against human HCT-116 cells assessed as cell growth inhibition in presence of irinotecan; format: functional, cell-based
HCT-116 [27] = assay: Induction of apoptosis in human HCT-116 cells at 10 uM in presence of EGCG at 10 uM relative to control; format: functional
HCT-116 [28] = assay: Induction of apoptosis in human HCT-116 cells at 20 uM in presence of EGCG at 10 uM relative to control; format: functional
HCT-116 [29] = assay: Induction of apoptosis in human HCT-116 cells at 20 uM in presence of EGCG at 20 uM relative to control; format: functional
HCT-116 [30] = assay: Induction of apoptosis in human HCT-116 cells at 20 uM relative to control; format: functional
HCT-116 [31] = assay: Induction of apoptosis in human HCT-116 cells at 10 uM in presence of EGCG at 20 uM relative to control; format: functional
HCT-116 [32] = assay: Induction of apoptosis in human HCT-116 cells at 10 uM relative to control; format: functional
HCT-116 [33] = assay: Induction of apoptosis in human HCT-116 cells at 250 uM relative to control; format: functional
HCT-116 [34] = assay: Antiproliferative activity against human HCT-116 cells assessed as cell growth inhibition at 200 uM relative to control; format: functional; design: scale not given: the % may be the effect or the level left

## CC(C)(O)[C@H]1CC[C@@](C)([C@H]2CC[C@]3(C)C2[C@H](O)CC2[C@@]4(C)CC[C@H](OC(=O)C5CCNCC5)C(C)(C)C4CC[C@]23C)O1 (stereo partly specified)
Bacillus subtilis
  MIC: 2 µg/mL (≈ 3.4 µM)
Staphylococcus aureus
  MIC: 8 µg/mL (≈ 13.6 µM)

## CC1(C)CCC[C@](C)(C2CC[C@]3(C)C2[C@H](O)CC2[C@@]4(C)CC[C@H](OC(=O)c5ccccc5O)C(C)(C)C4CC[C@]23C)O1 (stereo partly specified)
HepG2 2.2.15
  IC50: 7.27 µM

## CC1(C)CCC[C@](C)(C2CC[C@]3(C)C2[C@H](O)CC2[C@@]4(C)CC[C@H](OC(=O)CCC(=O)O)C(C)(C)C4CC[C@]23C)O1 (stereo partly specified)
HepG2 2.2.15
  IC50: 7.27 µM

## COc1cc(/C=C2/C[C@@]3(C)C(CC[C@]4(C)C3C[C@@H](O)C3C([C@@]5(C)CCCC(C)(C)O5)CC[C@]34C)C(C)(C)C2=O)cc(OC)c1OC (stereo partly specified)
PC-3
  IC50: 45.6 µM

## CC1(C)CCC[C@](C)(C2CC[C@]3(C)C2[C@H](O)CC2[C@@]4(C)C/C(=C/c5ccc(O)cc5)C(=O)C(C)(C)C4CC[C@]23C)O1 (stereo partly specified)
PC-3
  IC50: 11.7 µM
LNCaP
  IC50: < 38.9 µM

## CC(C)(O)[C@@H]1CC[C@@](C)([C@H]2CC[C@]3(C)C2[C@H](O)CC2[C@@]4(C)CC[C@H](O)C(C)(C)C4CC[C@]23C)O1 (stereo partly specified)
HeLa [1]
  IC50: 17.7 µM

## CC1(C)CCC[C@](C)(C2CC[C@]3(C)C2[C@H](O)CC2[C@@]4(C)CC[C@H](OC(=O)c5c(Cl)c(Cl)c(Cl)c(Cl)c5C(=O)O)C(C)(C)C4CC[C@]23C)O1 (stereo partly specified)
MCF7
  IC50: 8.62 µM

## CO[C@H]1CC(=O)[C@]2(C)C1[C@H](OC(C)=O)CC1[C@@]3(C)CC[C@H](O)C(C)(C)C3CC[C@]12C (stereo partly specified)
[2]
  IC50: 410 nM
[3]
  IC50: 44 nM

## CC(=O)O[C@H]1CC[C@@]2(C)C(CC[C@]3(C)C2C[C@@H](O)C2C([C@@](C)(O)CCC=C(C)C)CC[C@]23C)C1(C)C (stereo partly specified)
SW480 [4]
  IC50: 30 µM
MCF7
  IC50: 37.3 µM
HCT-116 [5]
  IC50: 43.3 µM

## CC(=O)Oc1ccccc1C(=O)O[C@H]1CC[C@@]2(C)C(CC[C@]3(C)C2C[C@@H](O)C2C([C@@]4(C)CCCC(C)(C)O4)CC[C@]23C)C1(C)C (stereo partly specified)
MCF7
  IC50: 2.56 µM

## CC(C)(O)[C@H]1CC[C@@](C)([C@H]2CC[C@]3(C)C2[C@H](O)CC2[C@@]4(C)CC[C@H](O)C(C)(C)C4CC[C@]23C)O1 (stereo partly specified)
HeLa [1]
  IC50: 4.58 µM

## CC1(C)CCC[C@](C)(C2CC[C@]3(C)C2[C@H](O)CC2[C@@]4(C)CC[C@H](O)C(C)(C)C4CC[C@]23C)O1 (stereo partly specified)
Mus musculus
  Activity: 29.5%
HCT-116 [6]
  Activity: 97.2%
SK-HEP1
  IC50: 800 nM
HCT-116 [7]
  Activity: 50.7%
HCT-116 [8]
  Activity: 28.7%
HCT-116 [9]
  Activity: 11.9%
HCT-116 [10]
  Activity: 25.8%
HeLa [11]
  IC50: 1200 nM
HCT-116 [12]
  Activity: 7.2%
HCT-116 [13]
  Activity: 16.6%
HCT-116 [14]
  Activity: 94.7%

## O=c1[nH]cc(F)c(=O)[nH]1 [FLUOROURACIL]
HCT-116 [15]
  Activity: 49.4%
HCT-116 [16]
  Activity: 13.8%
HCT-116 [17]
  Activity: 27.4%
HCT-116 [18]
  Activity: 5.7%
HCT-116 [19]
  Activity: 28.8%
HCT-116 [20]
  Activity: 30.1%
HCT-116 [21]
  Activity: 20.2%
HCT-116 [22]
  Activity: 5%

## CC1(C)CCC[C@](C)(C2CC[C@]3(C)C2[C@H](O)CC2[C@@]4(C)C/C(=C/c5ccc(C(F)(F)F)cc5)C(=O)C(C)(C)C4CC[C@]23C)O1 (stereo partly specified)
PC-3
  IC50: 35.4 µM
LNCaP
  IC50: < 38.9 µM

## CC1(C)CCC[C@@](C)(C2CC[C@]3(C)C2[C@H](O)CC2[C@@]4(C)CC[C@H](O)C(C)(C)C4CC[C@]23C)O1 (stereo partly specified)
HCT-116 [23]
  Activity: 35.2%
SW480 [4]
  IC50: 5 µM
HCT-116 [24]
  Activity: 48%
SW480 [25]
  IC50: 4.4 µM
HCT-116 [26]
  IC50: 11.8 µM
HCT-116 [27]
  Activity: 14.1%
HCT-116 [28]
  Activity: 27.8%
HCT-116 [29]
  Activity: 40.7%
HCT-116 [30]
  Activity: 19%
HCT-116 [31]
  Activity: 30.2%
HCT-116 [32]
  Activity: 5.7%
HCT-116 [5]
  IC50: 12.1 µM

## CC(=O)O[C@@H]1CC2[C@@]3(C)CC[C@H](O)C(C)(C)C3CC[C@@]2(C)[C@]2(C)C(=O)C=CC12 (stereo partly specified)
[3]
  IC50: 34 nM

## CC1(C)CCC[C@](C)(C2CC[C@]3(C)C2[C@H](O)CC2[C@@]4(C)C/C(=C/c5cccs5)C(=O)C(C)(C)C4CC[C@]23C)O1 (stereo partly specified)
PC-3
  IC50: 47.3 µM
LNCaP
  IC50: < 38.9 µM

## CO[C@@H]1CC(=O)[C@]2(C)C1[C@H](OC(C)=O)CC1[C@@]3(C)CC[C@H](O)C(C)(C)C3CC[C@]12C (stereo partly specified)
[2]
  IC50: 3300 nM
[3]
  IC50: 15 nM

## CC(C)(O)[C@@H]1CC[C@@](C)([C@H]2CC[C@]3(C)C2[C@H](O)CC2[C@@]4(C)CC[C@H](OC(=O)C5CCNCC5)C(C)(C)C4CC[C@]23C)O1 (stereo partly specified)
Bacillus subtilis
  MIC: 2 µg/mL (≈ 3.4 µM)
Staphylococcus aureus
  MIC: 168 µg/mL (≈ 286 µM)

## COc1ccc(/C=C2/C[C@@]3(C)C(CC[C@]4(C)C3C[C@@H](O)C3C([C@@]5(C)CCCC(C)(C)O5)CC[C@]34C)C(C)(C)C2=O)cc1 (stereo partly specified)
PC-3
  IC50: 39.4 µM

## CC1(C)CCC[C@](C)(C2CC[C@]3(C)C2[C@H](O)CC2[C@@]4(C)CC[C@H](OC(=O)c5cc(O)c(O)c(O)c5)C(C)(C)C4CC[C@]23C)O1 (stereo partly specified)
HepG2 2.2.15
  IC50: 7.27 µM

## CC1(C)CCC[C@](C)(C2CC[C@]3(C)C2[C@H](O)CC2[C@@]4(C)CC[C@H](OC(=O)CCCC(=O)O)C(C)(C)C4CC[C@]23C)O1 (stereo partly specified)
HepG2 2.2.15
  IC50: 7.27 µM

## Oc1cc(O)c2c(c1)O[C@H](c1ccc(O)c(O)c1)[C@H](O)C2 [(-)-EPICATECHIN]
HCT-116 [33]
  Activity: 9.4%
HCT-116 [34]
  Activity: 17%
